According to patent US8410132B2, “Modulators of cystic fibrosis transmembrane conductance regulator” (Vertex Pharmaceuticals Incorporated, priority 2007, dated 2013):

Target: T1, ΔF508-CFTR (Homo sapiens, UniProt P13569, DEL508-508)
T1 construct: expressed in transfected cells; host or cells: Fisher rat epithelial (FRT) cells expressing ΔF508-CFTR (Ussing chamber); NIH3T3 cells stably expressing ΔF508-CFTR (whole-cell recordings)
Assay: Assay for detecting and measuring ΔF508-CFTR potentiation properties of compounds (membrane potential optical method / Ussing chamber)
Type: cell-based
Conditions: for Emax: relative efficacy, efficacy compared to that of the known potentiator genistein; for EC50: ΔF508-CFTR potentiation
Description: Assays for Detecting and Measuring ΔF508-CFTR Potentiation Properties of Compounds
Membrane Potential Optical Methods for Assaying ΔF508-CFTR Modulation Properties of Compounds
The optical membrane potential assay utilized voltage-sensitive FRET sensors described by Gonzalez and Tsien (See, Gonzalez, J. E. and R. Y. Tsien (1995) “Voltage sensing by fluorescence resonance energy transfer in single cells” Biophys J 69(4): 1272-80, and Gonzalez, J. E. and R. Y. Tsien (1997) “Improved indicators of cell membrane potential that use fluorescence resonance energy transfer” Chem Biol 4(4): 269-77) in combination with instrumentation for measuring fluorescence changes such as the Voltage/Ion Probe Reader (VIPR) (See, Gonzalez, J. E., K. Oades, et al. (1999) “Cell-based assays and instrumentation for screening ion-channel targets” Drug Discov Today 4(9): 431-439).
These voltage sensitive assays are based on the change in fluorescence resonant energy transfer (FRET) between the membrane-soluble, voltage-sensitive dye, DiSBAC2(3), and a fluorescent phospholipid, CC2-DMPE, which is attached to the outer leaflet of the plasma membrane and acts as a FRET donor. Changes in membrane potential (Vm) cause the negatively charged DiSBAC2(3) to redistribute across the plasma membrane and the amount of energy transfer from CC2-DMPE changes accordingly. The changes in fluorescence emission were monitored using VIPR™ II, which is an integrated liquid handler and fluorescent detector designed to conduct cell-based screens in 96- or 384-well microtiter plates.
Identification of Potentiator Compounds
Typical protocol utilized a basolateral to apical membrane Cl^− concentration gradient. To set up this gradient, normal ringers was used on the basolateral membrane and was permeabilized with nystatin (360 μg/ml), whereas apical NaCl was replaced by equimolar sodium gluconate (titrated to pH 7.4 with NaOH) to give a large Cl^− concentration gradient across the epithelium. All experiments were performed 30 min after nystatin permeabilization. Forskolin (10 μM) and all test compounds were added to both sides of the cell culture inserts. The efficacy of the putative ΔF508-CFTR potentiators was compared to that of the known potentiator, genistein.
Fisher rat epithelial (FRT) cells expressing ΔF508-CFTR (FRTΔ^F508-CFTR) were used for Ussing chamber experiments for the putative ΔF508-CFTR modulators identified from our optical assays. The cells were cultured on Costar Snapwell cell culture inserts and cultured for five days at 37° C. and 5% CO2 in Coon's modified Ham's F-12 medium supplemented with 5% fetal calf serum, 100 U/ml penicillin, and 100 μg/ml streptomycin. Prior to use for characterizing the potentiator activity of compounds, the cells were incubated at 27° C. for 16-48 hrs to correct for the ΔF508-CFTR. To determine the activity of corrections compounds, the cells were incubated at 27° C. or 37° C. with and without the compounds for 24 hours.
Compounds of the invention are useful as modulators of ATP binding cassette transporters. Table 3 below illustrates the EC50 and relative efficacy of certain embodiments in Table 1.

T1 sequence (P13569 with tags, fused parts or gaps DEL508-508): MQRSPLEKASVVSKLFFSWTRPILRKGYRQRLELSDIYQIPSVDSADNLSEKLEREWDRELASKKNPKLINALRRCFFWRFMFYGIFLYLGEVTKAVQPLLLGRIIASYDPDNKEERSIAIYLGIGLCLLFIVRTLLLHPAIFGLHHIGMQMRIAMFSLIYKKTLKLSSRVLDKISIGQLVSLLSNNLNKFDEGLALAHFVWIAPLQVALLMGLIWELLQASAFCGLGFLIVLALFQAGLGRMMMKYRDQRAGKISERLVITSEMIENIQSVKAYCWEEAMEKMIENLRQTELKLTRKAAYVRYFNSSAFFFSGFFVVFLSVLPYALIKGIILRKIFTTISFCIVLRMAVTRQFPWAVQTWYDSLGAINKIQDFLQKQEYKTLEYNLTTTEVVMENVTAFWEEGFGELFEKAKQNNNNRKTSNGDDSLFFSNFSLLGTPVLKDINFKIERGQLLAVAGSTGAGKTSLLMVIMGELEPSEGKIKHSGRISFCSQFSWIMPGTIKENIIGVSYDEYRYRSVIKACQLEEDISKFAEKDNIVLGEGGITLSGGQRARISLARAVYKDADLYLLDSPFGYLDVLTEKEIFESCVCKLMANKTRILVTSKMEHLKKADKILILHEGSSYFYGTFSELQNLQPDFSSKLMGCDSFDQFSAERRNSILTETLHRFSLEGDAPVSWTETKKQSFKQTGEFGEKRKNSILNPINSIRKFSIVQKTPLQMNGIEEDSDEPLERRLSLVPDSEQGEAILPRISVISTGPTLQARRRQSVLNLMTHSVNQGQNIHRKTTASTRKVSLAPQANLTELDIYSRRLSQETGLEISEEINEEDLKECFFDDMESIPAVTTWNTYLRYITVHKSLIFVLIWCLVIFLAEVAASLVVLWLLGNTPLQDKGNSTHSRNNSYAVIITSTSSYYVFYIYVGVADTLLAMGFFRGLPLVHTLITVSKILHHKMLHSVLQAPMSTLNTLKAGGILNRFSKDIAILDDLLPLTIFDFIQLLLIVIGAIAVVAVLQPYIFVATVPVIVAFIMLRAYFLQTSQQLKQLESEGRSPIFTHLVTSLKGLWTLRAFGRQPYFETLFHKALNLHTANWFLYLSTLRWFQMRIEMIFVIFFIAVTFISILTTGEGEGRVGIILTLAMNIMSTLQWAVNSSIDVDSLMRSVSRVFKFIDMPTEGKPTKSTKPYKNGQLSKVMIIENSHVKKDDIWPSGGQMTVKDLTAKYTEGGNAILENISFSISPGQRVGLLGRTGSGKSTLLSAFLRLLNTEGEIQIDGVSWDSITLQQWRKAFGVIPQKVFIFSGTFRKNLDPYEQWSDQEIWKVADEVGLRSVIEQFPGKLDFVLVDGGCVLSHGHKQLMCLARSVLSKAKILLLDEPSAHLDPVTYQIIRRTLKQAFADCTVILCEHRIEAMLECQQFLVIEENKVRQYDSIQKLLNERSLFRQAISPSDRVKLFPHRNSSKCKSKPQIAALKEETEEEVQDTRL

Row | SMILES | Emax [%] | EC50 [µM]
1 | CC(C)(C)c1cc(C(C)(C)C)c(NC(=O)c2c[nH]c3cnccc3c2=O)cc1O [Cmpd 9, N-(2,4-di-tert-butyl-5-hydroxyphenyl)-4-oxo-1,4-dihydro-1,7-naphthyridine-3-carboxamide] | 25 to 100 | < 10
2 | Cc1cc2c(=O)c(C(=O)Nc3cc4[nH]ccc4cc3C(F)(F)F)c[nH]c2cn1 [Cmpd 15, 6-methyl-4-oxo-N-(5-(trifluoromethyl)-1H-indol-6-yl)-1,4-dihydro-1,7-naphthyridine-3-carboxamide] | 25 to 100 | < 10
3 | Cc1cc2c(=O)c(C(=O)Nc3cc(O)c(C4(C)CCCCC4)cc3F)c[nH]c2cn1 [Cmpd 17, N-(2-fluoro-5-hydroxy-4-(1-methylcyclohexyl)phenyl)-6-methyl-4-oxo-1,4-dihydro-1,7-naphthyridine-3-carboxamide] | < 25 | 10 to 25
4 | CC(C)c1ccccc1NC(=O)c1c[nH]c2ccncc2c1=O [Cmpd 4, N-(2-isopropylphenyl)-4-oxo-1,4-dihydro-1,6-naphthyridine-3-carboxamide] | 25 to 100 | < 10
5 | CC1(C)CCCN(c2ccc(NC(=O)c3c[nH]c4cnccc4c3=O)c(C(F)(F)F)c2)C1 [Cmpd 18, N-(4-(3,3-dimethylpiperidin-l-yl)-2-(trifluoromethyl)phenyl)-4-oxo-1,4-dihydro-1,7-naphthyridine-3-carboxamide] | 25 to 100 | < 10
6 | O=C(NCC(c1ccccc1)c1ccccc1)c1c[nH]c2ccncc2c1=O [Cmpd 2, N-(2,2-diphenylethyl)-4-oxo-1,4-dihydro-1,6-naphthyridine-3-carboxamide] | 25 to 100 | < 10
7 | O=C(Nc1ccc2cc[nH]c2c1)c1c[nH]c2ccncc2c1=O [Cmpd 6, N-(1H-indol-6-yl)-4-oxo-1,4-dihydro-1,6-naphthyridine-3-carboxamide] | < 25 | < 10
8 | CCCc1ccccc1NC(=O)c1c[nH]c2ccncc2c1=O [Cmpd 3, 4-oxo-N-(2-propylphenyl)-1,4-dihydro-1,6-naphthyridine-3-carboxamide] | 25 to 100 | < 10
9 | CC1(c2cc(F)c(NC(=O)c3c[nH]c4cnccc4c3=O)cc2O)CCCCC1 [Cmpd 13, N-(2-fluoro-5-hydroxy-4-(1-methylcyclohexyl)phenyl)-4-oxo-1,4-dihydro-1,7-naphthyridine-3-carboxamide] | 25 to 100 | < 10
10 | O=C(Nc1ccc(N2CCCC2)cc1C(F)(F)F)c1c[nH]c2ccncc2c1=O [Cmpd 7, 4-oxo-N-(4-(pyrrolidin-1-yl)-2-(trifluoromethyl)phenyl)-1,4-dihydro-1,6-naphthyridine-3-carboxamide] | 25 to 100 | < 10
11 | O=C(NCC1(c2ccc(OC(F)(F)F)cc2)CCCC1)c1c[nH]c2ccncc2c1=O [Cmpd 8, 4-oxo-N-((1-(4-(trifluoromethoxy)phenyl)-cyclopentyl)methyl)-1,4-dihydro-1,6-naphthyridine-3-carboxamide] | 25 to 100 | < 10
12 | CC(C)(C)c1cc2cc[nH]c2cc1NC(=O)c1c[nH]c2cnccc2c1=O [Cmpd 10, N-(5-tert-butyl-1H-indol-6-yl)-4-oxo-1,4-dihydro-1,7-naphthyridine-3-carboxamide] | 25 to 100 | < 10
13 | O=C(NC(c1ccccc1)c1ccccc1)c1c[nH]c2ccncc2c1=O [Cmpd 1, N-benzhydryl-4-oxo-1,4-dihydro-1,6-naphthyridine-3-carboxamide] | > 100 | < 10
14 | O=C(Nc1ccc2c(C(F)(F)F)c[nH]c2c1)c1c[nH]c2cnccc2c1=O [Cmpd 16, 4-oxo-N-(3-(trifluoromethyl)-1H-indol-6-yl)-1,4-dihydro-1,7-naphthyridine-3-carboxamide] | 25 to 100 | < 10
15 | O=C(Nc1ccccc1-c1ccccc1)c1c[nH]c2ccncc2c1=O [Cmpd 5, N-(biphenyl-2-yl)-4-oxo-1,4-dihydro-1,6-naphthyridine-3-carboxamide] | 25 to 100 | < 10
16 | O=C(Nc1cc2[nH]ccc2cc1C(F)(F)F)c1c[nH]c2cnccc2c1=O [Cmpd 14, 4-oxo-N-(5-(trifluoromethyl)-1H-indol-6-yl)-1,4-dihydro-1,7-naphthyridine-3-carboxamide] | 25 to 100 | < 10
17 | C[C@H]1CCCN1c1ccc(NC(=O)c2c[nH]c3cnccc3c2=O)c(C(F)(F)F)c1 [Cmpd 12, (S)-N-(4-(2-methylpyrrolidin-1-yl)-2-(trifluoromethyl)phenyl)-4-oxo-1,4-dihydro-1,7-naphthyridine-3-carboxamide] | 25 to 100 | < 10
18 | O=C(Nc1ccc(N2CCCC2)cc1C(F)(F)F)c1c[nH]c2cnccc2c1=O [Cmpd 11, 4-oxo-N-(4-(pyrrolidin-1-yl)-2-(trifluoromethyl)phenyl)-1,4-dihydro-1,7-naphthyridine-3-carboxamide] | 25 to 100 | < 10
